Tests used:
[1] = Permeability from basolateral to apical side of human Caco2 cells at 10 uM after […] by HPLC-MS/MS analysis; assay type: ADME, cell-based; settings: Caco-2, read-out: permeability
[2] = Oral bioavailability in cynomolgus monkey; assay type: ADME, organism-based, Macaca fascicularis; settings: in vivo
[3] = Permeability from apical to basolateral side of human Caco2 cells at 10 uM after […] by HPLC-MS/MS analysis; assay type: ADME, cell-based; settings: Caco-2, read-out: permeability

Row | SMILES | Papp B→A at […], 10 µM [1] [×10⁻⁶ cm/s] | Papp A→B at […], 10 µM [3] [×10⁻⁶ cm/s] | bioavailability [2] [%]
1 | CC(C)(C)c1cc(NC(=O)N2CCCN(C(=O)C3CCOCC3)CC2)no1 | 42 | 7 | 3
2 | O=C(C1CCOCC1)N1CCCN(c2nc(C(F)(F)F)c(Cl)s2)CC1 | 70 | 53 | –

Further lines, with some results ahead:

Row | Papp B→A at […], 10 µM [1] [×10⁻⁶ cm/s] | Papp A→B at […], 10 µM [3] [×10⁻⁶ cm/s] | SMILES | bioavailability [2] [%]
3 | 64 | 49 | CC(C)(C)c1ccc2oc(N3CCCN(C(=O)C4CCOCC4)CC3)nc2c1 | –
4 | 71 | 62 | O=C(C1CCOCC1)N1CCCN(c2nc3ccc(Cl)cc3s2)CC1 | –
5 | 61 | 67 | O=C(C1CCOCC1)N1CCCN(c2nc(-c3ccccc3)ns2)CC1 | –
